{"source": "patent US6468983B2", "about": "“RNase L activators and antisense oligonucleotides effective to treat telomerase-expressing malignancies” (The Cleveland Clinic Foundation, priority 1997, dated 2002)", "key": {"[1]": {"tested_on": "U251-MG cells", "test": "Cell viability assay, trypan blue dye exclusion, oligonucleotide in water every 12 hr", "format": "cell-based, human", "conditions": "5 micromolar every 12 hr", "method": "The cytotoxic effect of 2-5A activator antisense complexes on tumor cells was determined using the trypan blue dye exclusion assay. Tumor cells were seeded at 10^4 cells/well (0.1 ml) in 96-well flat-bottomed plates and incubated overnight at 37° C. Then, oligonucleotides (5 micromolar) in water were added into cells every 12 hr. On successive days the cells were harvested and 25% of the total was examined microscopically to determine the percentage of viable cells, another 25% was replated to continue treatment and the remaining 50% were used for the TRAP assay.\nKnowing that hTR could be inactivated by the 2-5A antisense treatment, U251-MG cells were treated every 12 hours over a 14 day period with the same three oligonucleotides. 79% of the cells treated with spA4-anti-hTR were killed over the 14 day period with a significant (50%) reduction in cell viability after only 5 days. […] These experiments have since been repeated on a number of occasions with U251-MG cells to test new batches of oligonucleotides, always with the same results. […] Thus, after 14 days from the initial treatment with spA4-anti-hTR, the viability of U251-MG cells, as shown by Trypan-blue exclusion assays, was suppressed in all cases."}, "[2]": {"tested_on": "U251-MG cells", "test": "TUNEL assay on cultured cells treated with spA4-anti-hTR", "format": "cell-based, human", "conditions": "treated cells fixed and stained"}, "[3]": {"tested_on": "U373 cells", "test": "Viable cell count (trypan blue), daily oligonucleotide plus lipofectamine", "format": "cell-based, human", "method": "Cells (10,000/well) were seeded on 96 well tissue culture dishes, and treated every 24 hours. A 10× concentrated mixture of oligonucleotides plus lipofectamine in water was prepared containing 5 micromolar oligonucleotide and 80 microgram per ml lipofectamine™ (Gibco/BRL) and incubated for 10 min at room temperature. Media was removed from the cells, 10 microliters of the oligonucleotide/lipofectamine mixture was added directly to the cultured cells followed by 90 microliters of media plus serum. The media was changed with oligonucleotide/lipofectamine treatments every 24 h. Cells were passaged when the control cells reached confluency, and viable cells were counted after staining with Trypan Blue (GibcoBRL). The numbers of cells treated only with lipofectamine were used as the control to calculate percentages of cell survival or viability."}, "[4]": {"tested_on": "U251-MG tumors", "test": "Subcutaneous xenografts in nude mice, intratumoral oligonucleotide", "format": "in vivo, Balb/c nude mice", "conditions": "for reduction in tumor size during the treatment period: intratumoral daily for 14 days, relative to starting size", "method": "(§1) U251-MG and U373 MG tumor cells (1.0×10^6 cells in 0.1 ml serum free DMEM and 0.1 ml Matrigel) were injected subcutaneously into the right flank of 8-12 week-old female Balb/c nude mice (5 mice for each treatment group). Tumor growth was monitored using calipers every 2- or 3-days. Tumor volume (V) was calculated as (L×W^2)/2, where L=length (mm) and W=width (mm). Oligonucleotide treatment was initiated when the tumors reached an average tumor volume of 60-100 mm^3 (about four to five weeks after injection). Oligonucleotides (5 nmol/20 microliter sterile distilled water) were administered by injecting them directly into the tumor every 24 hr for 7-14 days. Some experiments included lipofectamine at 1 microliter per 20 microliters final volume of oligonucleotide solution. Mice were sacrificed by cervical dislocation the day after the final injection and the tumors were removed, frozen rapidly and 12 μm sections were prepared for histological studies. During all of these experiments, which were approved by the CCF Research Programs Committee, the animals were housed and handled in accordance with the National Institutes of Health guidelines."}, "[5]": {"tested_on": "U373-MG tumors", "test": "Subcutaneous xenografts in nude mice, intratumoral oligonucleotide", "format": "in vivo, Balb/c nude mice", "conditions": "5 nmol intratumoral daily for 7 days", "method": "as §1"}, "[6]": {"tested_on": "A375 tumors", "test": "Subcutaneous tumors in nude mice, intratumoral oligonucleotide plus lipofectamine", "format": "in vivo", "method": "(§2) RCC and A375 tumor cells (500,000 cells per tumor) were injected subcutaneously. The treatments, begun 8 days after tumor cell inoculation, was with 40 microliter of 25 micromolar SpA4-anti-hTR plus 1 microliter (2 microgram) lipofectamine injected in each tumor every day."}, "[7]": {"tested_on": "RCC tumors", "test": "Subcutaneous tumors in nude mice, intratumoral oligonucleotide plus lipofectamine", "format": "in vivo", "method": "as §2"}, "[8]": {"tested_on": "U373-MG cells", "test": "Combination with cisplatin in vitro, MTT assay", "format": "cell-based, human", "conditions": "treatment with spA4-anti-hTR", "method": "FIG. 17. Effect of combining 2-5A-anti-hTR with cisplatin on malignant glioma U373-MG cells in vitro and in vivo. FIG. 17A Tumor cells were treated with 2-5A-anti-hTR (0.5 μM, every 24 hr) mixed with Lipofectamine (1.0 μl/25 μl DMEM) or cisplatin for three days, and their viability was determined by MTT assay. Values represent the means±S.D. FIG. 17B Tumors from U373-MG cells (1.0×10^6 cells in 0.05 ml serum free DMEM and 0.05 ml matrigel) were established subcutaneously in nude mice. After four or five weeks when the tumors were approximately 60-100 mm^3, spA4-anti-hTR (5 nmol/20 μl sterile distilled water) were administrated directly into the tumors daily for 7 days. Cisplatin (1.0 or 5.0 mg/kg/mice) was administered intraperitoneally on Days 1, 3 and 5. Five Mice were used in each treatment group. Tumor volume was then determined using calipers, and the mean sizes ±S.D. were calculated.\nTo determine if the anti-malignant glioma cell activity of chemotherapeutic agent, cisplatin, could be enhance with SpA4-anti-hTR, a combination therapy protocol was devised (FIG. 17). The point at which 50% cell death was achieved was using 1 microgram per ml of cisplatin plus 0.5 micromolar of SpA4-anti-hTR; whereas in the absence of SpA4-anti-hTR, >10 micrograms per ml of cisplatin were required to achieve 50% cell death (FIG. 17). […] Furthermore, we determined the effect of combining 2-5A-anti-hTR with cisplatin on U373-MG cells in vitro and in vivo. […] The IC50 of cisplatin was reduced from 10.0 to 1.0 μg/ml by combination of spA4-anti-hTR."}, "[9]": {"conditions": "U373, 0.5 micromolar daily plus lipofectamine, 3 days"}}, "note": "“And” between values parts separate entries of the source, which are not always exact repeats. Identical values can stand only once. “Also recorded” adds a separate entry of the source.", "data": [{"substance": "Sp5′A2′p(5′A2p)3-[(Bu)p]2-5′GCG CGG GGA GCA AAA GCA C3′-3′T5′ (antisense GCGCGGGGAGCAAAAGCAC; 5'-thiophosphate 2-5A tetramer, butanediol linkers, 3'-3'T cap, chemistry not fully specified) [spA4-anti-hTR, 2-5A tetramer linked by butanediol linkers to 19-mer antisense against human telomerase RNA nucleotides 76 to 94]", "values": [{"measurement": "cell death / effect on viability (in words)", "setting": "[1]; 14 days", "result": "vast majority of cells can be killed"}, {"measurement": "reduction in cell viability", "setting": "[1]; after 5 days", "result": 50, "unit": "%"}, {"measurement": "cells killed", "setting": "[1]; over the 14 day period", "result": 79, "unit": "%"}, {"measurement": "apoptotic cell death by TUNEL (in words)", "setting": "[2]", "result": "increased number of darkly staining nuclei"}, {"measurement": "increase in the anti-tumor cell effect by use of lipofectamine", "setting": "[3]; 0.5 micromolar once a day with lipofectamine versus without", "result": "about 10 fold"}, {"measurement": "effect on growth/viability (in words)", "setting": "[3]; [9]", "result": "specifically suppressed growth"}, {"measurement": "reduction in viability", "setting": "[3]; [9]", "result": "about 60%"}, {"measurement": "cell viability reduced to", "setting": "[3]; U373, 0.5 micromolar daily plus lipofectamine, 7 days, two separate cultures", "result": "< 2", "unit": "%"}, {"measurement": "reduction in viability", "setting": "[3]; U373, 0.5 micromolar daily plus lipofectamine, 8 days", "result": 90, "unit": "%"}, {"measurement": "reduction of the dose required to block proliferation and survival of tumor cells using lipofectamine", "setting": "[3]; with lipofectamine versus without", "result": 10, "unit": "fold"}, {"measurement": "tumor growth (in words)", "setting": "[4]; 5 nmol intratumoral daily for 7 days", "result": "significantly suppressed the growth; also recorded: failed to grow progressively"}, {"measurement": "average net weight of the tumors after treatment", "setting": "[4]; 14 days treatment", "result": "54.0 ± 28.7", "unit": "mg"}, {"measurement": "further change in tumor size (in words)", "setting": "[4]; days 8-14 of the treatment compared with first 7 days", "result": "only a marginal additional reduction in size"}, {"measurement": "reduction in tumor size during the treatment period", "setting": "[4]", "result": "48% and 50%"}, {"measurement": "reduction in tumor size during the treatment period", "setting": "[4]; listed as 2-5A-anti-hTR", "result": 50, "unit": "%"}, {"measurement": "tumor growth (in words)", "setting": "[5]", "result": "significantly suppressed the growth; also recorded: failed to grow progressively"}, {"measurement": "increase in tumor size", "setting": "[6]; A375, 40 microliter of 25 micromolar plus lipofectamine intratumoral daily, seven days", "result": 17, "unit": "%"}, {"measurement": "tumor cell growth (in words)", "setting": "[6]; A375 subcutaneous, oligonucleotide plus lipofectamine from day 8", "result": "Suppression"}, {"measurement": "tumor cell growth (in words)", "setting": "[7]; RCC subcutaneous, oligonucleotide plus lipofectamine from day 8", "result": "Suppression"}, {"measurement": "increase in tumor size", "setting": "[7]; RCC, 40 microliter of 25 micromolar plus lipofectamine intratumoral daily, seven day period", "result": 14, "unit": "%"}, {"measurement": "susceptibility of U373-MG cells to cisplatin (in words)", "setting": "[8]", "result": "increased the susceptibility"}]}]}
